Data from patent US10842727B2, “Cosmetic composition comprising white rose flower extract for skin whitening and improving skin wrinkle” (CHUNGBUK NATIONAL UNIVERSITY INDUSTRY-ACADEMIC COOPERATION …, priority 2014, dated 2020).

Assays:
[1] = test system: mushroom tyrosinase; assay: Melanin synthase (tyrosinase) inhibition with L-DOPA, absorbance 475 nm; type: biochemical; conditions: method of Example 4
Method: Meanwhile, in order to measure a skin whitening effect of the white rose petal extract, an effect of inhibiting activity of tyrosinase as melanin synthase was measured with reference to the guideline of “beauty-related functional tests (pp. 821-858)” of Korea health official compendium research society foundation. […] In this case, on the basis of a change in absorbance when only the buffer without the white rose fractions was added as a reference (100%), reduction of the absorbance caused by the white rose fractions for each concentration was represented by an inhibition rate.

[2] = test system: collagen matrix metalloproteinase-1 (MMP-1); assay: Collagen matrix metalloproteinase-1 (MMP-1) activity inhibition, collagenase type-1 on bovine tendon collagen, ninhydrin absorbance 600 nm; type: biochemical; conditions: method of Example 3
Method: As part of measuring a wrinkle alleviation effect of the white rose petal extract, effects of inhibiting activity of collagen matrix metalloproteinase-1 (MMP-1) of the extracts were measured with reference to the guideline of “beauty-related functional tests (pp. 821-858)” of Korea health official compendium research society foundation.
When simply describing the effect, 25 mg of bovine tendon collagen was dissolved in a 0.05 M tris(hydroxymethyl)-methyl-2-aminoethane sulfonate (TES) buffer and then left for 15 minutes at 37° C. Next, a test material for each concentration was added and then additionally reacted with collagenase type-1 for 5 hours at 37° C. 0.2 mL of a reaction solution was taken and added to 1 mL of a buffer [4% ninhydrin in methyl cellosolve (2-methoxyethanol)+0.2 M sodium citrate with 0.71 mM stannous chloride]. The reaction solution was boiled for 20 minutes, added with n-propanol, and then left for 15 minutes and then absorbance was measured at 600 nm. On the basis of a change in absorbance when only the buffer without the white rose fractions was added as a reference (100%), reduction of the absorbance caused by the white rose fractions for each concentration was represented by an inhibition rate.

[3] = test system: B16 mouse melanoma cells; assay: Melanin synthesis inhibition in α-MSH-treated cells; type: cell-based; conditions: method of Example 5
Method: In order to more definitize a skin whitening effect of the white rose petal extract, the inventors measured a melanin synthesis inhibitory effect of the white rose petal extract at a cell level with reference to the guideline of “beauty-related functional tests (pp. 821-858)” of Korea health official compendium research society foundation (2004).
When simply describing this, B16 mouse melanoma cells were dispensed to 1×10^4 cells/well (0.5 mL) in a […] plate and cultured for 24 hours. The B16 mouse melanoma cells was treated with the white rose fraction for each concentration and a α-melanocyte stimulating hormone (MSH) and additionally cultured for 3 days at 37° C. The cells were lysed by adding 0.15 mL of 1 M NaOH to a culture medium and boiled for 5 minutes to elute the melanin. 0.1 mL of the eluate was taken and absorbance at 490 nm was measured. A standard calibration curve was created by synthetic melanin and the concentration was quantified and an inhibition rate for each concentration of the white rose fraction was proposed based on a melanin production amount when the sample was not treated as a reference (100%).

With COc1c(CC=C(C)C)c(O)c2c(=O)c3c(O)ccc(OC)c3oc2c1CC=C(C)C [3,5-di-o-methyl-gartanin] the “tyrosinase inhibition activity (in words)” value [1] was “excellent tyrosinase inhibition activity”, the “inhibition effect of MMP-1 (in words)” value [2] was “particularly excellent inhibition effect of MMP-1” and the “melanin synthesis inhibitory effect (in words)” value [3] was “efficiently inhibited”.
